Experimental data reported in ChEMBL document CHEMBL1121775, “Synthesis and antimalarial effects of N2-aryl-N4-[(dialkylamino)alkyl]- and N4-aryl-N2-[(dialkylamino)alkyl]-2,4-quinazolinediamines” (J Med Chem, 1981).
Where “and” joins values, the source holds several entries; their conditions need not be identical. Identical values can stand only once.

Assays:
[1] = tested on: Plasmodium berghei; experiment: Antimalarial effect against trophozoite-induced Plasmodium berghei in mice (Mus musculus) after 40 mg/kg subcutaneous dose; format: functional
[2] = The ratio of SD90 of the quinine hydrochloride, to the SD90 of the test substance for the Dose of >37 mg/kg; format: functional
[3] = tested on: Plasmodium berghei; experiment: Antimalarial activity against trophozoite-induced Plasmodium berghei in mice (Mus musculus) at 160 mg/kg subcutaneous dose; format: functional
[4] = tested on: Plasmodium berghei; experiment: Antimalarial activity against trophozoite-induced Plasmodium berghei in mice (Mus musculus); format: functional
[5] = tested on: Mus musculus; experiment: Number of toxic deaths at a dose of 640 mg/kg; format: toxicity, organism-based; set-up: dose 640 mg/kg; settings: in vivo
[6] = tested on: Mus musculus; experiment: Antimalarial effect against trophozoite induced Plasmodium berghei in mice (Mus musculus) at dosage of 40 mg/kg after subcutaneous administration; format: functional
[7] = tested on: Mus musculus; experiment: Antimalarial effect against trophozoite-induced Plasmodium berghei in mice (Mus musculus) at dosage of 160 mg/kg after subcutaneous administration;; format: functional
[8] = tested on: Mus musculus; experiment: Number of mice cured at a subcutaneous dose of 160 mg/kg.; format: functional
[9] = (§1) Number of mice cured at a dose of 80 mg/kg sc; format: functional; settings: route subcutaneous
[10] = (§2) Number of mice cured at a dose of 40 mg/kg sc; format: functional; settings: route subcutaneous
[11] = tested on: Mus musculus; experiment: as §2; format: functional; settings: route subcutaneous
[12] = The ratio of SD90 of the quinine htdrocloride, to the SD90 of the test substance for the Dose of 8.5 mg/kg; format: functional
[13] = tested on: Plasmodium berghei; experiment: Antimalarial effect against trophozoite-induced Plasmodium berghei in mice (Mus musculus) after 20 mg/kg subcutaneous dose; format: functional
[14] = tested on: Mus musculus; experiment: Number of mice cured at a dose of 320 mg/kg sc; format: functional; settings: route subcutaneous
[15] = tested on: Mus musculus; experiment: Antimalarial effect against trophozoite-induced Plasmodium berghei in mice (Mus musculus) at dosage of 80 mg/kg after subcutaneous administration; format: functional
[16] = tested on: Mus musculus; experiment: Number of mice cured at a dose of 640 mg/kg sc; format: functional; settings: route subcutaneous
[17] = The ratio of SD90 of the quinine hydrochloride, to the SD90 of the test substance for the Dose of 17.5 mg/kg; format: functional
[18] = tested on: Mus musculus; experiment: Number of mice cured at a dose of 160 mg/kg sc; format: functional; settings: route subcutaneous
[19] = tested on: Mus musculus; experiment: Number of mice cured at a subcutaneous dose of 640 mg/kg.; format: functional
[20] = tested on: Plasmodium berghei; experiment: Antimalarial effect against trophozoite-induced Plasmodium berghei in mice (Mus musculus) at 80 mg/kg subcutaneous dose; format: functional
[21] = The ratio of SD90 of the quinine hydrochloride, to the SD90 of the test substance for the Dose of 24 mg/kg; format: functional
[22] = tested on: Plasmodium berghei; experiment: Antimalarial effect against trophozoite-induced Plasmodium berghei in mice (Mus musculus) at 160 mg/kg subcutaneous dose; format: functional
[23] = tested on: Plasmodium berghei; experiment: (§3) Antimalarial effect against trophozoite-induced Plasmodium berghei in mice (Mus musculus) at 640 mg/kg subcutaneous dose; format: functional
[24] = tested on: Plasmodium berghei; experiment: Antimalarial effect against trophozoite-induced Plasmodium berghei in mice (Mus musculus) at 320 mg/kg subcutaneous dose; format: functional
[25] = The ratio of SD90 of the quinine hydrochloride, to the SD90 of the test substance for the Dose of 9.8 mg/kg; format: functional
[26] = The ratio of SD90 of the quinine hydrochloride, to the SD90 of the test substance for the Dose of 9.3 mg/kg; format: functional
[27] = The ratio of SD90 of the quinine hydrochloride, to the SD90 of the test substance for the Dose of 6 mg/kg; format: functional
[28] = tested on: Mus musculus; experiment: Antimalarial effect against trophozoite-induced Plasmodium berghei in mice (Mus musculus) at dosage of 80 mg/kg after subcutaneous administration; No. of mice (Mus musculus) surviving after 60 days 4; format: functional
[29] = tested on: Mus musculus; experiment: Number of mice cured at a subcutaneous dose of 320 mg/kg.; format: functional
[30] = tested on: Mus musculus; experiment: Antimalarial effect against trophozoite-induced Plasmodium berghei in mice (Mus musculus) at dosage of 160 mg/kg after subcutaneous administration; No. of mice (Mus musculus) surviving after 60 days 4; format: functional
[31] = tested on: Mus musculus; experiment: Number of mice cured at a dose 320 mg/kg sc; format: functional; settings: route subcutaneous
[32] = The ratio of SD90 of the quinine hydrochloride, to the SD90 of the test substance for the Dose of 91 mg/kg; format: functional
[33] = tested on: Mus musculus; experiment: Antimalarial effect against trophozoite induced Plasmodium berghei in mice (Mus musculus) at dosage of 640 mg/kg after subcutaneous administration; No. of mice (Mus musculus) surviving after 60 days 3; format: functional
[34] = The ratio of SD90 of the quinine hydrochloride, to the SD90 of the test substance for the Dose of 10.5 mg/kg; format: functional
[35] = The ratio of SD90 of the quinine hydrochloride, to the SD90 of the test substance for the Dose of 7.8 mg/kg; format: functional
[36] = tested on: Mus musculus; experiment: as §1; format: functional; settings: route subcutaneous
[37] = The ratio of SD90 of the quinine hydrochloride, to the SD90 of the test substance for the Dose of >69 mg/kg; format: functional
[38] = tested on: Plasmodium berghei; experiment: as §3; format: functional; remark: listed apart in the source
[39] = The ratio of SD90 of the quinine hydrochloride, to the SD90 of the test substance for the Dose of >147 mg/kg; format: functional
[40] = The ratio of SD90 of the quinine hydrochloride, to the SD90 of the test substance for the Dose of 9 mg/kg; format: functional
[41] = The ratio of SD90 of the quinine hydrochloride, to the SD90 of the test substance for the Dose of 120 mg/kg; format: functional

c1ccc2c(NCCCN3CCCC3)nc(Nc3ccncc3)nc2c1
MST [1]: 0.3 days | Ratio [2]: <2 | MST [3]: 0.9 days | SD90 [4]: >37 mg/kg/day | No. of toxic deaths [5]: 5 and 2

CCN(CC)C1CCC(Nc2nc(Nc3cc(Cl)cc(Cl)c3)nc3ccccc23)CC1 (stereo in doubt; 35)
MST [6]: 9.6 days and 8.9 days | MST [7]: 23.9 days | No. of survivals ([8]; 160 mg/kg): 4 and 3 | No. of survivals [9]: 4 | No. of survivals [10]: 2 | No. of survivals [11]: 2 | Ratio [12]: 8.8 | MST ([3]; 160 mg/kg): 24.9 days | SD90 [4]: 8.5 mg/kg/day | MST ([13]; 20 mg/kg): 5.5 days | No. of survivals [14]: 5 | MST ([15]; 80 mg/kg): 21.9 days | No. of survivals [16]: 5

CCN(CC)C1CCCC(Nc2nc(Nc3ccc(Cl)c(Cl)c3)nc3ccccc23)C1 (centres undefined)
Ratio [17]: 4.2 | MST ([1]; 40 mg/kg): 5 days and 4.8 days | No. of cured [18]: 2 | MST ([3]; 160 mg/kg): 22.8 days and 23.1 days | No. of cured [19]: 5 | SD90 [4]: 17.5 mg/kg/day | MST [13]: 1 days | No. of cured [14]: 5 | MST [20]: 8 days

CCN(CC)CCNc1nc(Nc2ccc(Cl)c(Cl)c2)nc2ccccc12
MST [1]: 1 days | Ratio [21]: 3.1 | SD90 [4]: 24 mg/kg/day | MST [22]: 7 days | No. of survivals [16]: 5

CN1CCCC1CCNc1nc(Nc2ccc(Cl)cc2)nc2ccccc12 (centres undefined)
MST ([1]; 40 mg/kg): 1.1 days and 0.8 days | No. of cured ([19]; 640 mg/kg): 2 and 3 | SD90 [4]: 9.8 mg/kg/day | MST [13]: 0.8 days | MST ([23]; 640 mg/kg): 12.2 days and 22.3 days | MST ([22]; 160 mg/kg): 10.7 days and 10.2 days | MST [24]: 14.4 days | MST [20]: 4.4 days | Ratio [25]: 7.6

CN(C)C1CCC(Nc2nc(Nc3cc(Cl)cc(Cl)c3)nc3ccccc23)CC1 (stereo in doubt; 25)
MST ([1]; 40 mg/kg): 9.7 days and 9.3 days | Ratio [26]: 8 | No. of cured [19]: 5 | SD90 [4]: 9.3 mg/kg/day | MST ([13]; 20 mg/kg): 5.1 days | No. of cured [14]: 4 | MST ([22]; 160 mg/kg): 17.5 days and 16.9 days | MST ([24]; 320 mg/kg): 24.9 days | MST ([20]; 80 mg/kg): 10.9 days

CN1CCCC1CCNc1nc(Nc2cccc(Br)c2)nc2ccccc12 (centres undefined)
MST ([1]; 40 mg/kg): 5.2 days and 4.5 days | No. of cured ([19]; 640 mg/kg): 3 and 2 | SD90 [4]: 6 mg/kg/day | MST [13]: 1.6 days | MST ([23]; 640 mg/kg): 20.3 days and 21.9 days | MST ([22]; 160 mg/kg): 11.4 days and 11.7 days | MST [24]: 15 days | MST [20]: 7.8 days | Ratio [27]: 12.4

CN(C)C1CCC(Nc2nc(Nc3cc(Cl)cc(Cl)c3)nc3ccccc23)CC1 (stereo in doubt; 26)
No. of survivals ([8]; 160 mg/kg): 2 and 4 | MST [28]: 23.9 days | No. of survivals [29]: 5 | MST ([3]; 160 mg/kg): 19.1 days and 24.9 days | MST ([13]; 20 mg/kg): 3.6 days and 1.7 days | MST ([24]; 320 mg/kg): 27.8 days | No. of survivals [16]: 5 | MST ([20]; 80 mg/kg): 11.6 days and 9 days | MST [30]: 27.9 days | No. of survivals [31]: 4

CCN(CC)CCNc1nc(Nc2ccc(C(F)(F)F)cc2)nc2ccccc12
MST ([1]; 40 mg/kg): 1.7 days and 1.1 days | Ratio [32]: 0.8 | No. of survivals [8]: 1 | No. of survivals [29]: 4 | SD90 [4]: 91 mg/kg/day | MST [13]: 0.3 days | MST [22]: 8.9 days | No. of survivals [16]: 4 | MST [20]: 7.3 days

CN1CCCC1CCNc1nc(Nc2ccc(Cl)c(Cl)c2)nc2ccccc12 (centres undefined)
MST [1]: 4 days | No. of cured [19]: 4 | SD90 [4]: 10.5 mg/kg/day | MST ([13]; 20 mg/kg): 3 days and 3.9 days | No. of cured [14]: 2 | MST [33]: 28.9 days | MST [23]: 29.8 days | MST ([22]; 160 mg/kg): 13.2 days and 13.9 days | MST [24]: 20.8 days | Ratio [34]: 7.1 | MST [20]: 8 days

CN(C)C1CCC(Nc2nc(Nc3ccc(Cl)c(Cl)c3)nc3ccccc23)CC1 (stereo in doubt; 22)
MST ([1]; 40 mg/kg): 4.5 days and 4.1 days | No. of cured [18]: 4 | Ratio [35]: 9.6 | No. of cured [36]: 3 | MST ([3]; 160 mg/kg): 22.9 days | SD90 [4]: 7.8 mg/kg/day | MST ([13]; 20 mg/kg): 0.3 days | No. of cured [14]: 4 | MST [15]: 11.4 days | MST [22]: 25.9 days | MST ([24]; 320 mg/kg): 25.9 days

CCNCc1cc(Nc2nc(NC3CCC(N(C)C)CC3)c3ccccc3n2)ccc1OC (centres undefined)
MST [1]: 0.5 days | SD90 [4]: >69 mg/kg/day | MST [13]: 0.3 days | Ratio [37]: <1.1 | MST [22]: 3.7 days | MST [20]: 2.7 days

OC1CCCN(CCCNc2nc(Nc3nc(-c4ccccc4)cs3)nc3ccccc23)C1 (centres undefined)
MST [1]: 0.2 days | MST [38]: 0.8 days | Ratio [39]: <0.5 | SD90 [4]: >147 mg/kg/day | MST [22]: 0.4 days

CCN(CC)C1CCC(Nc2nc(Nc3cc(Cl)cc(Cl)c3)nc3ccccc23)CC1 (stereo in doubt; 34)
MST ([1]; 40 mg/kg): 7.7 days and 7.5 days | No. of cured [18]: 2 | No. of cured [36]: 1 | Ratio [40]: 8.3 | MST ([3]; 160 mg/kg): 26.9 days and 23.4 days | No. of cured [19]: 5 | SD90 [4]: 9 mg/kg/day | MST ([13]; 20 mg/kg): 2.3 days | No. of cured ([14]; 320 mg/kg): 5 and 3 | MST ([15]; 80 mg/kg): 13.4 days

CCN(CC)CCNc1nc(Nc2cc(Cl)cc(Cl)c2)nc2ccccc12
SD90 [4]: 120 mg/kg/day | MST [13]: 0.2 days | MST ([23]; 640 mg/kg): 22.1 days and 20.8 days | Ratio [41]: 0.6 | MST ([22]; 160 mg/kg): 8.2 days and 9 days | MST [24]: 12.2 days | No. of survivals ([16]; 640 mg/kg): 2 and 3 | MST [20]: 3.2 days
